Experimental data: PubChem BioAssay (NCI)
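These data come from cells grown in 96-well plates and exposed to compound for 48 hours at five concentrations. GI50 marks 50% less growth. The concentration for full growth arrest is given as TGI.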

What was measured:
Experiment in all cases: inhibition of tumour cell growth, NCI panel, 48 h
SK-OV-3 ovarian = tested on: SK-OV-3 ovarian
SNB-75 CNS = tested on: SNB-75 CNS
DU-145 prostate = tested on: DU-145 prostate
UACC-257 melanoma = tested on: UACC-257 melanoma
BT-549 breast = tested on: BT-549 breast
SK-MEL-28 melanoma = tested on: SK-MEL-28 melanoma
K-562 leukemia = tested on: K-562 leukemia
IGROV1 ovarian = tested on: IGROV1 ovarian
HCC-2998 colon = tested on: HCC-2998 colon
SNB-19 CNS = tested on: SNB-19 CNS
SF-268 CNS = tested on: SF-268 CNS
SK-MEL-2 melanoma = tested on: SK-MEL-2 melanoma
MDA-MB-435 = tested on: MDA-MB-435
ACHN renal = tested on: ACHN renal
HL-60(TB) leukemia = tested on: HL-60(TB) leukemia
MCF7 breast = tested on: MCF7 breast
HOP-92 NSCLC = tested on: HOP-92 NSCLC
CAKI-1 renal = tested on: CAKI-1 renal
SF-295 CNS = tested on: SF-295 CNS
MALME-3M melanoma = tested on: MALME-3M melanoma
HCT-15 colon = tested on: HCT-15 colon
U251 CNS = tested on: U251 CNS
LOX IMVI melanoma = tested on: LOX IMVI melanoma
NCI-H522 lung = tested on: NCI-H522 lung
EKVX NSCLC = tested on: EKVX NSCLC
MOLT-4 leukemia = tested on: MOLT-4 leukemia
NCI/ADR-RES ovarian = tested on: NCI/ADR-RES ovarian
SK-MEL-5 melanoma = tested on: SK-MEL-5 melanoma
MDA-MB-231 breast = tested on: MDA-MB-231 breast
A498 renal = tested on: A498 renal
PC-3 prostate = tested on: PC-3 prostate
COLO 205 colon = tested on: COLO 205 colon
HS 578T breast = tested on: HS 578T breast
M14 melanoma = tested on: M14 melanoma
A549 NSCLC = tested on: A549 NSCLC
SW-620 colon = tested on: SW-620 colon
CCRF-CEM leukemia = tested on: CCRF-CEM leukemia
SR leukemia = tested on: SR leukemia
TK-10 renal = tested on: TK-10 renal
OVCAR-8 ovarian = tested on: OVCAR-8 ovarian
HT29 colon = tested on: HT29 colon
OVCAR-4 ovarian = tested on: OVCAR-4 ovarian
RPMI-8226 leukemia = tested on: RPMI-8226 leukemia

In the case of `O=C(Nc1cc(C(F)(F)F)cc(C(F)(F)F)c1)Nc1ccc2oc(=O)ccc2c1`, the GI50 (SK-OV-3 ovarian) was 2320 nM, the TGI (SK-OV-3 ovarian) was 5700 nM and the GI50 (SNB-75 CNS) was 1930 nM. For the same molecule, the TGI (SNB-75 CNS) was 6590 nM, the GI50 (DU-145 prostate) was 2000 nM and the TGI (DU-145 prostate) was > 100000 nM. For the same molecule, the GI50 (UACC-257 melanoma) was 2020 nM, the TGI (UACC-257 melanoma) was 6130 nM and the GI50 (BT-549 breast) was 2360 nM. The TGI (BT-549 breast) was 6560 nM, the GI50 (SK-MEL-28 melanoma) was 2790 nM and the TGI (SK-MEL-28 melanoma) was > 100000 nM. The GI50 (K-562 leukemia) was 782 nM, the TGI (K-562 leukemia) was > 100000 nM and the GI50 (IGROV1 ovarian) was 1510 nM. The TGI (IGROV1 ovarian) was > 100000 nM, the GI50 (HCC-2998 colon) was 2770 nM and the TGI (HCC-2998 colon) was > 100000 nM. For the same molecule, the GI50 (SNB-19 CNS) was 1230 nM, the TGI (SNB-19 CNS) was > 100000 nM and the GI50 (SF-268 CNS) was 2950 nM. The TGI (SF-268 CNS) was > 100000 nM, the GI50 (SK-MEL-2 melanoma) was 1680 nM and the TGI (SK-MEL-2 melanoma) was 3410 nM. For the same molecule, the GI50 (MDA-MB-435) was 2970 nM, the TGI (MDA-MB-435) was > 100000 nM and the GI50 (ACHN renal) was 1290 nM. For the same molecule, the TGI (ACHN renal) was > 100000 nM, the GI50 (HL-60(TB) leukemia) was 705 nM and the TGI (HL-60(TB) leukemia) was 5740 nM. For the same molecule, the GI50 (MCF7 breast) was 2880 nM, the TGI (MCF7 breast) was > 100000 nM and the GI50 (HOP-92 NSCLC) was 1410 nM. It also gave a TGI (HOP-92 NSCLC) of 4890 nM, a GI50 (CAKI-1 renal) of 1250 nM and a TGI (CAKI-1 renal) of 4860 nM. The GI50 (SF-295 CNS) was 1440 nM, the TGI (SF-295 CNS) was > 100000 nM and the GI50 (MALME-3M melanoma) was 1870 nM. The TGI (MALME-3M melanoma) was 5080 nM, the GI50 (HCT-15 colon) was 2110 nM and the TGI (HCT-15 colon) was > 100000 nM. The GI50 (U251 CNS) was 1290 nM, the TGI (U251 CNS) was > 100000 nM and the GI50 (LOX IMVI melanoma) was 1600 nM. The TGI (LOX IMVI melanoma) was 4370 nM, the GI50 (NCI-H522 lung) was 1400 nM and the TGI (NCI-H522 lung) was 5000 nM. The GI50 (EKVX NSCLC) was 3920 nM, the TGI (EKVX NSCLC) was > 100000 nM and the GI50 (MOLT-4 leukemia) was 758 nM. The TGI (MOLT-4 leukemia) was > 100000 nM, the GI50 (NCI/ADR-RES ovarian) was 2010 nM and the TGI (NCI/ADR-RES ovarian) was > 100000 nM. The GI50 (SK-MEL-5 melanoma) was 1230 nM, the TGI (SK-MEL-5 melanoma) was 2510 nM and the GI50 (MDA-MB-231 breast) was 2770 nM. The TGI (MDA-MB-231 breast) was > 100000 nM, the GI50 (A498 renal) was 1670 nM and the TGI (A498 renal) was 4970 nM. The GI50 (PC-3 prostate) was 753 nM, the TGI (PC-3 prostate) was > 100000 nM and the GI50 (COLO 205 colon) was 1750 nM. For the same molecule, the TGI (COLO 205 colon) was 3460 nM, the GI50 (HS 578T breast) was 2440 nM and the TGI (HS 578T breast) was 6360 nM. For the same molecule, the GI50 (M14 melanoma) was 2710 nM, the TGI (M14 melanoma) was > 100000 nM and the GI50 (A549 NSCLC) was 2140 nM. For the same molecule, the TGI (A549 NSCLC) was > 100000 nM, the GI50 (SW-620 colon) was 3020 nM and the TGI (SW-620 colon) was > 100000 nM. For the same molecule, the GI50 (CCRF-CEM leukemia) was 1220 nM, the TGI (CCRF-CEM leukemia) was > 100000 nM and the GI50 (SR leukemia) was 997 nM. The TGI (SR leukemia) was 5090 nM, the GI50 (TK-10 renal) was 2990 nM and the TGI (TK-10 renal) was > 100000 nM. For the same molecule, the GI50 (OVCAR-8 ovarian) was 1960 nM, the TGI (OVCAR-8 ovarian) was > 100000 nM and the GI50 (HT29 colon) was 2470 nM. The TGI (HT29 colon) was > 100000 nM, the GI50 (OVCAR-4 ovarian) was 1250 nM and the TGI (OVCAR-4 ovarian) was > 100000 nM. It also gave a GI50 (RPMI-8226 leukemia) of 426 nM and a TGI (RPMI-8226 leukemia) of 2360 nM.
